# Measurements taken from US10822317B2, “Methods and compositions for wound healing” (QBiotics Limited, priority 2013, dated 2020).
# Tests used:
# [1] = system: immortalised human keratinocyte cells (HaCaT); assay: Scratch repopulation and closure with HaCaT; type: cell-based; conditions: 48 hours; for % of scratch wound area remaining open after treatment: ± standard error
# Experimental: The ability of immortalised human keratinocyte cells (HaCaT) to migrate across a scratch wound made in a confluent monolayer following treatment with either Compound 1 or Compound 37 was determined by the following method.
# Trypsinised HaCaT cells were seeded at a cell density of 7.4×10^4 cells/mL in 24-well BD Falcon flat-bottomed, tissue culture plates (VWR International, UK) in 1 mL Dulbecco's Modified Eagle Medium (DMEM), supplemented with L-glutamine (2 mM), antibiotics (100 U/mL penicillin G sodium, 100 μg/mL streptomycin sulphate and 0.25 μg/mL amphotericin B); and 10% foetal calf serum (all Invitrogen Ltd., UK) to give a cell density of 7.4×10^4 cells seeded in each well. The cells were then maintained at 37° C. in a 5% CO2/95% air atmosphere overnight. The following morning, the 10% foetal calf serum-containing DMEM was replaced with serum-free DMEM and the HaCaT cells were subsequently serum-starved in DMEM for 48 hr.
# After 48 hr, the serum-free DMEM was removed and a single scratch ‘wound’ made with a sterile pipette across each cell layer. Following washing twice in 1 mL PBS, Compound 1- or Compound 37-containing medium (1 mL) was added to each well. This medium consisted of DMEM, supplemented with L-glutamine (2 mM), antibiotics (as above) and 1% foetal calf serum, in addition to Compound 1 or Compound 37 at final concentrations of 0, 0.001, 0.01, 0.1, 1.0, 10 or 100 μg/mL. There were three replicate wells per concentration for each compound.
# The HaCaT cultures were maintained at 37° C. in a 5% CO2/95% air atmosphere and the repopulation of the denuded ‘wound’ areas monitored by Time-Lapse Confocal Microscopy (Leica TCS SP5 Confocal Microscope; Leica Microsystems UK Ltd., UK) at 100× magnification, with digital images captured at fixed positions every 20 min over a 48 h period. The digital image sequences were exported and prepared as .avi movie files, using LAS AF Software (Leica Microsystems). The rates of HaCaT wound closure in vitro were quantified using ImageJ Software (ImageJ 1.37v; http://rsb.info.nih.gov/ij/). The data was analysed by One Way Analysis of Variance with post-test Tukey analysis. Each experiment was performed on 3 separate occasions.
# [2] = system: TGF-β1-stimulated dermal fibroblasts; assay: Differentiation of adult dermal fibroblasts into myofibroblasts (α-SMA expression); type: cell-based, human
# Experimental: The effects of Compounds […] and 37 on dermal fibroblast differentiation to myofibroblasts was examined by the extent of α-SMA expression by TGF-βi-stimulated dermal fibroblasts.
# Following trypsinization, fibroblasts were seeded in 8-well, Permanoxchamber slides (VWR International) in DMEM medium, containing antibiotics, 2 mM L-glutamine and 10% foetal calf serum (250 μL, all purchased from Invitrogen); at a cell density of 2.5×10^4 cells/well and maintained at 37° C. in 5% CO2/95% air for 48 h.
# At 48 hr, fibroblasts were growth-arrested in serum-free DMEM for 48 hr and then replaced with serum-free DMEM (250 μL), containing Compounds 1 or 37 at concentrations of 0, 0.001, 0.01, 0.1, 1.0 and 10.0 μg/mL (3 wells/concentration/compound) and TGF-β1 (10 ng/ml, Peprotech). Fibroblasts were maintained at 37° C. in 5% CO2/95% air for 72 hr.
# At 72 hr, chamber slide wells were washed with PBS (×1, 250 μL) and fixed in 4% paraformaldehyde (100 μL/well) for 10 min. The chamber slide wells were then washed again with PBS (×1, 250 μl), treated with 0.1% Triton X-100 in PBS (100 μL, Sigma) for 5 min and re-washed with PBS (×1, 250 μL). Wells were blocked with 1% BSA in PBS (250 μL, Sigma) for 1 h and washed (×3) in 0.1% BSA/PBS.
# Wells were incubated with monoclonal mouse anti-human α-SMA, clone 1A4 (1:100, 150 ul, Sigma) at 4° C. overnight, washed (×6) in 0.1% BSA/PBS and incubated with Alexa Fluor 488 goat anti-mouse IgG antibody (1:1000, 250 μL, Invitrogen), at room temperature for 1 h, under darkness. Chamber slides were washed (×6) in 0.1% BSA/PBS and counterstained with Hoescht 33258 solution for 30 min under darkness (1:2000, 250 μL, Sigma). Chamber were subsequently removed for slides and treated with Fluorsave (Santa Cruz) for 10 min under darkness. Slides were viewed by fluorescence microscopy (Leica Microsystem), with digital images being capturedat ×200 magnification. Digital images were processed using HC Image J Software.
# HaCaT cells [3] = assay: HaCaT proliferation (MTT); type: cell-based, human; parameters: dose or concentration left out as unconfirmed; conditions: 24, 48, 120 and 168 hr; p<0.01
# Text: The proliferation experiment assessed the effects of the two compounds on HaCaT proliferation (as measured by MTT) in the culture system at 4 time periods (24, 48, 120 and 168 hr).
# HaCaT cells [4] = assay: HaCaT scratch repopulation with Mitomycin C (migration study); type: cell-based, human; conditions: with 1 μg/mL Mitomycin C; 0.001 to 1.0 μg/mL; p<0.05
smiles,measurement,setting,value
"CC=C(C)C(=O)OC1C(C)C2(O)C(C(O)C3(CO)OC3C3(O)C(=O)C(C)=CC32)C2C(C)(C)C12OC(=O)C(C)CC (centres unmarked) [Compound 37, 12-tigloyl-13-(2-methylbutanoyl)-5,6-epoxy-4,5,9,12,13,20-hexahydroxy-1-tigliaen-3-one]",% of scratch wound area remaining open after treatment,[1]; 0.001 μg/ml,4.3 ± 4.1%
same,% of scratch wound area remaining open after treatment,[1]; 0.01 μg/ml,0.9 ± 1.5%
same,% of scratch wound area remaining open after treatment,[1]; 0.1 μg/ml,2.2 ± 3.4%
same,% of scratch wound area remaining open after treatment,[1]; 1.0 μg/ml,30.0 ± 5.3%
same,% of scratch wound area remaining open after treatment,[1]; 10 μg/ml,37.1 ± 7.1%
same,rate of scratch closure compared to the control treatment,"[1]; 0.001, 0.01, 0.1 and 1.0 μg/ml, p<0.01",increased
same,differentiation of TGF-β1-treated adult dermal fibroblasts into myofibroblasts,"[2]; 0.001 to 10.0 μg/mL, 72 hr",affected differentiation into myofibroblasts in a concentration-dependent manner
same,myofibroblast morphology,[2]; 0.1 to 1.0 μg/mL,subtle alterations in myofibroblast morphology
same,α-SMA stress fibre formation and polygonal morphology development,"[2]; TGF-β1 10 ng/ml, 72 hr, 10 μg/mL",disruptive effect on α-SMA stress fibre formation and polygonal morphology development
same,proliferation of HaCaT cells (MTT) vs control with no compound,HaCaT cells [3],increasing proliferation
same,scratch repopulation and closure (migration study),HaCaT cells [4],enhanced
